# Measured values published in paper PMC7508583, “Discovery and Preclinical Development of Antigiardiasis Fumagillol Derivatives” (Antimicrobial Agents and Chemotherapy, 2020).
# Like-named read-outs stand apart in the source and are kept apart here.
# What was measured:
# Caco-2 cell monolayers = test: in vitro; conditions: human, Caco-2, 120 min, 10 µM, pH 7.4
# From the text: Next, we tested the permeation of the compounds across polarized Caco-2 cell monolayers, a method that is widely used as an in vitro model of the human small intestinal mucosa to predict the absorption of orally administered drugs ([63], [64]). With noninvasive intestinal infections, there is no need to establish a high plasma concentration. Since a high rate of uptake through the host gut lining could increase compound toxicity, we sought to reduce gut absorption. […] Both apical-to-basal and basal-to-apical permeation values were measured to obtain information about efflux. […] The efflux machinery is currently unknown.
# Passage 36 Caco-2 cells were used. The cells were cultured in Dulbecco’s modified Eagle’s medium (DMEM; 5 ml of 100 mM sodium pyruvate, 5 ml of 100× nonessential amino acids, 5 ml of penicillin-streptomycin, and 100 ml of heat-inactivated fetal bovine serum added to 385 ml of DMEM aseptically and mixed thoroughly), pH 7.4, at 37°C in 5% CO2. DMEM (250 μl) was added to the basal compartment of 96-well multiscreen Caco-2 cell plate consisting of high-pore-density polycarbonate (Millipore) with a 0.4-μm pore size and a 0.11-cm^2 active membrane area. The cells were seeded at a density of 12,000 cells/well (0.16 × 10^6 cells/ml) in the apical wells, with one well containing only medium as blank. The Caco-2 cell plate was placed in a CO2 incubator at 37°C for cell proliferation. On the day of assay, the medium was removed, washed twice with Hanks balanced salt solution (HBSS) buffer supplemented with 2% bovine serum albumin (BSA), pH 7.4, and incubated with the HBSS buffer for 30 min at 37°C. Wells with transepithelial electrical resistance values of greater than 230 Ω · cm^2 were selected for the experiments. […] The assay was performed in duplicate.
# Seventy-five microliters of the test compounds was added to the apical wells, and 250 μl of HBSS buffer with 2% BSA was added to the basal wells. The plate was incubated in a CO2 incubator with shaking on a plate shaker at 150 rpm for 120 min, after which 25 μl of the basal samples was collected and processed.
# Two hundred fifty microliters of test compounds was added to the basal wells, and 75 μl of HBSS buffer with 2% BSA was added to the apical wells. The plate was incubated in a CO2 incubator with shaking on a plate shaker at 150 rpm for 120 min, after which 25 μl of the apical samples was collected and processed.
# For sample processing, a single-point calibration curve in HBSS buffer with 2% BSA was used. Donor samples were diluted 1:1 with HBSS containing 2% BSA, and receiver samples were diluted with 1:1 HBSS buffer and precipitated with 200 μl of acetonitrile containing internal standard. The samples were vortexed for 5 min at 1,000 rpm and centrifuged at 4,000 rpm for 10 min. One hundred microliters of the supernatant was diluted with 200 μl of water and analyzed by LC-MS/MS (with a Shimadzu ultrafast liquid chromatograph and an API 4000 LC-MS/MS system).
# The apparent permeation coefficients (Papp) were calculated as Papp = (dQ/dT) × (1/C0) × (1/A), where dQ is the amount permeated to the receiver compartment of the 96-well plate, dT is the time of compound incubation, C0 is the initial compound concentration in the donor compartment of the well, and A is the surface area of the monolayer.
# [1] = test system: G. lamblia GS trophozoites; test: Mouse giardiasis model efficacy; assay type: in vivo, Giardia lamblia; conditions: for ED50: Giardia duodenalis, 96 h; for EC50, 4-day single-daily-dose treatment regimen: Fig. 5
# Procedure: The C57BL/6J mice were infected with G. lamblia GS trophozoites, treated for 4 days, and euthanized as described in Materials and Methods.
# Compound efficacy was evaluated in the mature mouse giardiasis model reported previously ([18], [66]). Fifteen 4-week-old C57BL/6J female mice (The Jackson Laboratory, Bar Harbor, ME) were infected with G. lamblia GS or H7 trophozoites. For each experiment, the trophozoites (500,000 trophozoites suspended in 200 μl of TYI-S-33 medium) were administered by oral gavage to 15 mice. […] The remaining 5 untreated mice served as controls. The compounds were administered by oral gavage in 200 μl of TYI-S-33 medium supplemented with 0.5% DMSO. All mice were euthanized on day 7. The University of Maryland College Park IACUC approved the animal studies.
# Two inches of the upper small intestine were dissected and washed with 2 ml of medium supplemented with antibiotics to produce axenized cultures (1 mg/ml each piperacillin and moxalactam and 10 μg/ml each vancomycin and polymyxin B, which is a modified mixture compared with that used earlier). The harvested small intestines were opened longitudinally and minced in a petri dish containing 10 ml of ice-chilled medium. The plates were placed on ice for 30 min to allow the trophozoites to detach from the intestine, and the entire content of each petri dish was transferred into a 15-ml glass tube, the volume was adjusted to 14 ml by adding the antibiotic-containing medium, and the tube was vigorously vortexed to separate the trophozoites from the intestine debris. For the following 2 h, the tubes were kept at 37°C to allow trophozoite attachment to the wall of the glass tube, after which the medium containing the intestine debris was decanted and replaced by fresh medium. The tubes were kept at 37°C for another 15 min, followed by a second medium replacement. The tubes were kept at 37°C for 6 days for proliferation. Trophozoite growth was determined once daily by monitoring the ATP content using the ATPlite reagent.
# The proliferation measurements were used to calculate growth curves and the trophozoite load of drug-treated mice compared with that of untreated mice. The trophozoite load was quantified by calculating the initial population from the growth curves and fitting the luminescence or the trophozoite counting data to the Malthusian model of exponential growth, Nt = N0e^rt, where Nt is the signal of the population at time t, r is the growth rate, and N0 is the signal of the initial population at the end of treatment. The percentage of the load relative to the N0 for untreated mouse samples was determined. […] The curve was fit with a variable slope using GraphPad Prism (version 8.2.1) software (GraphPad Software Inc., La Jolla, CA).
# CHO-K1 (CHO) cells = conditions: cited from earlier work
# [2] = 13.7 mg/kg, mouse giardiasis model
compound,measurement,setting,value
COC1C(OC(=O)NC(=O)CN2CCOCC2)CCC2(CO2)C1C1(C)OC1CC=C(C)C (centres unmarked) [Compound 3],Caco-2 cell permeation as % of the permeation of fumagillin,Caco-2 cell monolayers,62%
"CO[C@@H]1[C@H](OC(=O)Nc2ccc(C(=O)O)cc2)CC[C@]2(CO2)[C@H]1[C@@]1(C)O[C@@H]1CC=C(C)C [Compound 9, 4-(((((3R,4S,5S,6R)-5-methoxy-4-((2R,3R)-2-methyl-3-(3-methylbut-2-en-1-yl)oxiran-2-yl)-1-oxaspiro[2.5]octan-6-yl)oxy)carbonyl)amino)benzoic acid]",Caco-2 cell permeation as % of the permeation of fumagillin,Caco-2 cell monolayers,53%
same,"fully curative dose (100% effective dose, ED100)","[1]; C57BL/6J mice infected with G. lamblia GS, oral, once daily for 4 days",6.6 mg/kg
same,ED50,"[1]; C57BL/6J mice infected with G. lamblia GS, oral, once daily for 4 days, read-out: ED50",0.064 mg/kg
same,"EC50, 4-day single-daily-dose treatment regimen",[1]; mouse giardiasis model,0.064 mg/kg/day
"CO[C@@H]1[C@H](OC(=O)/C=C/C=C/C=C/C=C/C(=O)O)CC[C@]2(CO2)[C@H]1[C@@]1(C)O[C@@H]1CC=C(C)C [Fumagillin, reference compound]",cure of mice,[1]; [2],none of the mice were cured
same,trophozoite load remaining compared with untreated control mice,[1]; [2],7%
same,ED50,[1]; po,0.247 mg/kg
same,"EC50, 4-day single-daily-dose treatment regimen",[1]; mouse giardiasis model,0.247 mg/kg/day
same,IC50,"CHO-K1 (CHO) cells; read-out: IC50, cytotoxicity toward mammalian CHO cells",> 100 µM
"Cc1ncc([N+](=O)[O-])n1CCO [Metronidazole, reference compound]",IC50,"CHO-K1 (CHO) cells; read-out: IC50 CHO, cytotoxicity",17.3 µM
